Data from US20240018153A1, “BENZENESULFONAMIDE DERIVATIVES AND USES THEREOF” (2692372 ONTARIO, INC., priority 2020, published 2024).

Key:
BTK [1] = biological target: T1, BTK (Homo sapiens (Human), UniProt Q06187); assay: Jump dilution experiment, BTK; format: biochemical; conditions: 1.5-h incubation, 142 nM BTK, 10×IC50 compound, 100-fold dilution
Method: Sample containing only DMSO vehicle was used as a positive (full activity) control while sample with no enzyme was used as a negative (zero activity) control. After the preincubation, the mixture was diluted 100-fold into a reaction mixture containing 1 uM biotinylated substrate and 28 uM ATP and the reaction was allowed to proceed for various time points (2, 5, 10, 15, 20, 30, 45 and 60 min), at which the reaction was terminated by adding 1 ul of 0.5 M EDTA. 62.5 nM SA-XL665 and 100-fold diluted europium labelled antibody (Eu-Ab), diluted in 1× detection buffer, was added as detection mixture. After 60 min of incubation, the fluorescence emission was measured at 620 nm and 665 nm. The ratio of Em 665 nm to Em 620 nm was proportional to the amount of substrate phosphorylated by the kinase.

EGFR [2] = biological target: T2, EGFR (Homo sapiens (Human), UniProt P00533); assay: A549 cell lysis and immunoassay, total EGFR degradation; format: cell-based; design: key: Y: EGFR bound in cells and EGFR degradation occurred; conditions: A549 cells
T2 sequence (P00533 25-1210): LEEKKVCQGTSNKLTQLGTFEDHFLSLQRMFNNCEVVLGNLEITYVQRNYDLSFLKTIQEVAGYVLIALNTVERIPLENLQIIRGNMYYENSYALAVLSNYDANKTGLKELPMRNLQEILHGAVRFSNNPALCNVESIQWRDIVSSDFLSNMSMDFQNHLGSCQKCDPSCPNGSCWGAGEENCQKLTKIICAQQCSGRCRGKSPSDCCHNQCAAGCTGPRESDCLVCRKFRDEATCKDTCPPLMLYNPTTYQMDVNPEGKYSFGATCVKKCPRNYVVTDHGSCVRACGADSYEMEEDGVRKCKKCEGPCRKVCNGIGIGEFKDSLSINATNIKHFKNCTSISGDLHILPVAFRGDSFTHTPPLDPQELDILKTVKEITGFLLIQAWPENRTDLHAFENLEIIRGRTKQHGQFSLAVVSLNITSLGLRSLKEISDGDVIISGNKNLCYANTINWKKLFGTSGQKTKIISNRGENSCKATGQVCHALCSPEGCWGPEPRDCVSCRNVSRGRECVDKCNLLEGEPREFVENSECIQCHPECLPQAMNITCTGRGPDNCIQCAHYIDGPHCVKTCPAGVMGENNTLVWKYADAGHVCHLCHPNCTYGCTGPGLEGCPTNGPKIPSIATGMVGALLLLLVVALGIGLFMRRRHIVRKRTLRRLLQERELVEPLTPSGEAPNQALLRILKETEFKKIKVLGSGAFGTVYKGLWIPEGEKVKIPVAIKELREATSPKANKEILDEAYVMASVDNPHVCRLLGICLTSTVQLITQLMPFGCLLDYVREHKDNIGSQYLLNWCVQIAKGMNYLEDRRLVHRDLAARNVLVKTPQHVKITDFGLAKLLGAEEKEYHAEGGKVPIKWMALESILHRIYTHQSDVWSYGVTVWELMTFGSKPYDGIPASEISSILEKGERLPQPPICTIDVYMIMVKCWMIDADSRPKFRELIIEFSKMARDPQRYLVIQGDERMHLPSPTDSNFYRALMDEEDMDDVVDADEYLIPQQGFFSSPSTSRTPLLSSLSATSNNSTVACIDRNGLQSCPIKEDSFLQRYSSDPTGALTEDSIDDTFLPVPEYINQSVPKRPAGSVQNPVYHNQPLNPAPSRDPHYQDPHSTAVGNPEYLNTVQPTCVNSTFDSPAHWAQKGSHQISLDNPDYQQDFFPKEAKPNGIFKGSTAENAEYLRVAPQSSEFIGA
Method: (§1) A549 cells (ATCC) were cultured in Dulbecco's Modified Eagle's Medium (DMEM) (Wisent) supplemented with 10% FBS and 1% penicillin/streptomycin. Cells were seeded in 6-well plates at 530,000 cells/well and incubated at 37° C., 5% CO2 for 16 hours. Cells were starved in DMEM containing 1% FBS for 4 hours before they were treated with the indicated concentrations of compound or DMSO alone and incubated at 37° C., 5% CO2 for 24 hours. Prior to cell harvest and lysis, 50 ng/ml human epidermal growth factor (hEGF) (Sigma) was added to the cells and incubated at 37° C., 5% CO2 for 10 minutes. Conditioned media was discarded, and adherent cells were washed with PBS before they were scraped on ice. Cell suspensions were centrifugated at 2,000 RPM for 5 minutes at 4° C. and supernatants were discarded. Cell pellets were resuspended with 1× RIPA buffer (Millipore) and incubated on ice for 15 minutes. Protein lysates were extracted by centrifugating at 20,000 RPM for 20 minutes at 4° C. Proteins were separated and total EGFR protein levels were quantified by Simple Western Immunoassay (ProteinSimple) using the Protein Normalization Assay Module for Jess according to the manufacturer's protocol, using a protein concentration of 0.125 μg/μl and an antibody targeting EGFR (clone #EP38Y, Abcam) diluted to 1:400. Phosphorylated EGFR protein levels were quantified with the same assay using a protein concentration of 1 μg/μl and an antibody targeting pEGFR (Y1068) (Cell Signalling) diluted to 1:25. EGFR and phosphorylated EGFR levels were normalized to the Jess Protein Normalization Reagent loading control and subsequently to the DMSO control.

BTK [3] = biological target: T1, BTK; assay: Time-dependent inhibition of BTK (HTRF); format: biochemical; conditions: pre-incubation 0-45 min; for Time-dependent inhibition of BTK: product formation versus pre-incubation time: mono-exponential decay fit
Method: For the time-dependent inhibition experiments, the activity of BTK kinases was monitored using a HTRF® KinEASE-TK kit from Cisbio (62TK0PEC) as described above. […] The pre incubation times were 0, 1, 3, 5, 10, 15, 30 and 45 min. After the preincubation, reaction was initiated by adding biotinylated substrate and ATP and the reaction was allowed to proceed for 45 min. […] After 60 min of incubation, the fluorescence emission was measured at 620 nm and 665 nm. The ratio of Em 665 nm to Em 620 nm was proportional to the amount of substrate phosphorylated by the kinase. Product formation vs pre-incubation time data were fitted to a one phase exponential decay equation using GraphPad Prism. The same product formation vs inhibitor concentration data were also fitted to a log(antagonist) vs. response—Variable slope equation in GraphPad Prism to provide IC50 values at different pre incubation times.

BTK [4] = biological target: T1, BTK; assay: Ramos RA1 cell lysis and immunoassay, total BTK degradation; format: cell-based; design: key to % BTK degradation (RAMOS, 24 h): Y: BTK bound in cells and BTK degradation occurred; concentration or dose not given beside the values; conditions: RAMOS cells
Procedure, shortened: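 Ramos RA1 cells treated with compound or DMSO for 24 h at 37° C., lysed in RIPA, analysed by Simple Western. Total BTK normalised to β-actin, pBTK (Y223) to total-protein reagent; both expressed relative to DMSO control.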

EGFR [5] = biological target: T2, EGFR; assay: A549 cell lysis and immunoassay, phospho-EGFR (Y1068) inhibition; format: cell-based; design: key: X: EGFR bound and autophosphoration of EGFR inhibited in cells; conditions: A549 cells
Method: as §1

[6] = compound concentration 10, 24 h

T1 sequence (Q06187 whole entry): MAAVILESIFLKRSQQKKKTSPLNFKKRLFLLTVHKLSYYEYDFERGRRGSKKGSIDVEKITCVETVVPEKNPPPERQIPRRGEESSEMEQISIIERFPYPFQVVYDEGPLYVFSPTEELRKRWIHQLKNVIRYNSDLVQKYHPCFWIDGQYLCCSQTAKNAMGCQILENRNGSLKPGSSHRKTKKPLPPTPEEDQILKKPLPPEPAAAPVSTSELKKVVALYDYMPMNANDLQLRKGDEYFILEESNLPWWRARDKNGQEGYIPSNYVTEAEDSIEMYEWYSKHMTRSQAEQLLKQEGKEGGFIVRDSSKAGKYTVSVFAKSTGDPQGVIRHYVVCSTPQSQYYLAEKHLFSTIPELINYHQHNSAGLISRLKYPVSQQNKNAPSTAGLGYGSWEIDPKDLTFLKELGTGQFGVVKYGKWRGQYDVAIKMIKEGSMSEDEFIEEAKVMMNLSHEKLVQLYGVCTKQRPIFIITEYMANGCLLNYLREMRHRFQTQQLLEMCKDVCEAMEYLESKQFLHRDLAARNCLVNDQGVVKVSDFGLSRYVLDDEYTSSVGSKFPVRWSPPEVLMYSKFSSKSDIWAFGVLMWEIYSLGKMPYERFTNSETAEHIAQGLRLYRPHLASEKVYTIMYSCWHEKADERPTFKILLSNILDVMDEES

Compound | residual activity of BTK after jump dilution, relative to enzyme incubated with DMSO alone (BTK [1]) | EGFR degradation (A549, 1 μM, 24 h) (EGFR [2]) | EGFR degradation (A549, compound concentration, 24 h) (EGFR [2]; [6]) | % BTK degradation (RAMOS, 24 h) (BTK [4]) | pEGFR inhibition (A549, 1 μM, 24 h) (EGFR [5]) | pEGFR inhibition (A549, compound concentration, 24 h) (EGFR [5]; compound concentration 10 μM) | EGFR degradation (A549, compound concentration, 24 h) (EGFR [2]; compound concentration 5, 24 h) | pEGFR inhibition (A549, compound concentration, 24 h) (EGFR [5]; compound concentration 5 μM) | Time-dependent inhibition of BTK: product formation versus pre-incubation time (BTK [3]) | Time-dependent inhibition of BTK: IC50 values versus pre-incubation time (BTK [3])
C[S@+]([O-])c1c(F)c(F)c(F)c(F)c1C(=O)N1CC(n2nc(-c3ccc(Oc4ccccc4)cc3)c3c(N)ncnc32)C1 (racemic) [Compound I-37, (3-(4-amino-3-(4-phenoxyphenyl)-1H-pyrazolo[3,4-d]pyrimidin-1-yl)azetidin-1-yl)(2,3,4,5-tetrafluoro-6-(methylsulfinyl)phenyl)methanone] | less than 1% | Y | Y | Y | X | X |  |  | concentration-dependent first order loss of enzyme activity | decrease as pre-incubation times increase
C[S@+]([O-])c1c(F)c(F)c(F)c(F)c1C(=O)Nc1ncnc2[nH]ccc12 (racemic) [Compound I-46, 2,3,4,5-tetrafluoro-6-(methylsulfinyl)-N-(7H-pyrrolo[2,3-d]pyrimidin-4-yl)benzamide] |  | Y | Y | Y | X | X |  |  |  | 
C[S+]([O-])c1c(F)c(F)c(F)c(F)c1C(=O)Nc1cc2c(Nc3ccc(F)c(Cl)c3)ncnc2cc1OC1CCOC1 (stereo not drawn) [Compound I-3] |  |  | Y | Y | X | X |  |  |  | 
C[S+]([O-])c1c(F)c(F)c(F)c(F)c1C(=O)N1CCC[C@@H](n2nc(-c3ccc(Oc4ccccc4)cc3)c3c(N)ncnc32)C1 (stereo partly drawn) [Compound I-36, ((R)-3-(4-amino-3-(4-phenoxyphenyl)-1H-pyrazolo[3,4-d]pyrimidin-1-yl)piperidin-1-yl)(2,3,4,5-tetrafluoro-6-(methylsulfinyl)phenyl)methanone] |  | Y | Y | Y | X | X |  |  |  | 

Continued, in another order:

residual activity of BTK after jump dilution, relative to enzyme incubated with DMSO alone (BTK [1]) | EGFR degradation (A549, 1 μM, 24 h) (EGFR [2]) | EGFR degradation (A549, compound concentration, 24 h) (EGFR [2]; [6]) | % BTK degradation (RAMOS, 24 h) (BTK [4]) | pEGFR inhibition (A549, 1 μM, 24 h) (EGFR [5]) | pEGFR inhibition (A549, compound concentration, 24 h) (EGFR [5]; compound concentration 10 μM) | EGFR degradation (A549, compound concentration, 24 h) (EGFR [2]; compound concentration 5, 24 h) | pEGFR inhibition (A549, compound concentration, 24 h) (EGFR [5]; compound concentration 5 μM) | Compound | Time-dependent inhibition of BTK: product formation versus pre-incubation time (BTK [3]) | Time-dependent inhibition of BTK: IC50 values versus pre-incubation time (BTK [3])
less than 1% | Y | Y | Y | X |  |  |  | Nc1ncnc2c1c(-c1ccc(Oc3ccccc3)cc1)nn2CCCNC(=O)c1c(F)c(F)c(F)c(F)c1S(N)(=O)=O [Compound I-34, N-(3-(4-amino-3-(4-phenoxyphenyl)-1H-pyrazolo[3,4-d]pyrimidin-1-yl)propyl)-2,3,4,5-tetrafluoro-6-sulfamoylbenzamide] | concentration-dependent first order loss of enzyme activity | decrease as pre-incubation times increase
less than 1% | Y | Y | Y | X | X |  |  | CN(CCn1nc(-c2ccc(Oc3ccccc3)cc2)c2c(N)ncnc21)C(=O)c1c(F)c(F)c(F)c(F)c1S(N)(=O)=O [Compound I-33, N-(2-(4-amino-3-(4-phenoxyphenyl)-1H-pyrazolo[3,4-d]pyrimidin-1-yl)ethyl)-2,3,4,5-tetrafluoro-N-methyl-6-sulfamoylbenzamide] | concentration-dependent first order loss of enzyme activity | decrease as pre-incubation times increase
less than 1% | Y | Y | Y | X |  |  |  | CS(=O)(=O)c1c(F)c(F)c(F)c(F)c1C(=O)NCCn1nc(-c2ccc(Oc3ccccc3)cc2)c2c(N)ncnc21 [Compound I-38, N-(2-(4-amino-3-(4-phenoxyphenyl)-1H-pyrazolo[3,4-d]pyrimidin-1-yl)ethyl)-2,3,4,5-tetrafluoro-6-(methylsulfonyl)benzamide] | concentration-dependent first order loss of enzyme activity | decrease as pre-incubation times increase
less than 1% |  |  | Y | X |  | Y | X | CN(C)S(=O)(=O)c1c(F)c(F)c(F)c(F)c1C(=O)NCCn1nc(-c2ccc(Oc3ccccc3)cc2)c2c(N)ncnc21 [Compound I-40, N-(2-(4-amino-3-(4-phenoxyphenyl)-1H-pyrazolo[3,4-d]pyrimidin-1-yl)ethyl)-2-(N,N-dimethylsulfamoyl)-3,4,5,6-tetrafluorobenzamide] | concentration-dependent first order loss of enzyme activity | decrease as pre-incubation times increase
